Values of other authors as cited in patent publication US20080287507A1, “Nicotine containing toiletry waters” (priority 2007, published 2008).

Key:
[1] = smoking a cigarette

CN1CCCC1c1cccnc1 (centres unmarked) [Nicotine, 3-(1-methyl-2-pyrrolidinyl)-pyridine]
single dose that may kill an adult: Approximately 40 milligrams | time for nicotine to reach the brain after inhalation [1]: around ten
